{"source": "patent EP0416248A2", "about": "“Use of vitamine B6 for reducing elevated serotonin levels” (priority 1989, dated 1991)", "key": {"[1]": {"system": "B6 dependent intracellular pathways", "assay": "Very low doses of PN in humans", "type": "in vivo", "conditions": "0,02 mg/kg in humans"}, "[2]": {"system": "vitamin B6 levels in human plasma and cells", "assay": "Applicant's investigations of enprofylline and vitamin B6 levels"}, "PL-kinase": {"molecular_target": "T1, PL-kinase (Homo sapiens, UniProt O00764)", "T1 sequence (O00764 1-312)": "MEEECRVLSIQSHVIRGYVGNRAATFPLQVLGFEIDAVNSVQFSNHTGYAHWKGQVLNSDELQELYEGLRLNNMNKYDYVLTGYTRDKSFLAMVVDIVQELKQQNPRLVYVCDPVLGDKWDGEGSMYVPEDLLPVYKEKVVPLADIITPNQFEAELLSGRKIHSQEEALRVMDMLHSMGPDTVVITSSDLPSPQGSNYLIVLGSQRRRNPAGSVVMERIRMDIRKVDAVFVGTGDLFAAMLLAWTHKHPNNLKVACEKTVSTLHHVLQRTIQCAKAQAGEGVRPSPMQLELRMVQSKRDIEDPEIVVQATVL", "assay": "Enzyme kinetic studies of PL-kinase inhibition", "type": "biochemical"}, "serotonin": {"system": "serotonin", "type": "in vivo, humans", "method": "Studies on humans: The study was approved by the University Human Ethics Committee. Seven apparently healthy, young male volunteers aged 23 ± 2.4 ( ± SD) years gave informed consent to participate in the study. Each participant received theophylline (slow release) at a dosage of approximately 5 mg/kg body weight/day for one week. Thereafter, the theophylline dosage was increased to maintain plasma theophylline levels of approx. 10 mg/liter for 15 weeks. During the last week of the study (16th week) the participants were supplemented with 10 mg of vitamin B6 (B6) as herein described per day.\nClin. Chem. 35: 43-47. Serotonin concentrations were subsequently determined by HPLC according to the method of Tsuchiya et al.)"}, "[3]": {"system": "glutamate pyruvate transaminase (GPT) in red blood cells", "type": "in vivo, human", "method": "The inventor carried out clinical tests in human volunteers to investigate the effect of theophylline on glutamate pyruvate transaminase (GPT) in red blood cells, which plays an important biochemical role. […] When theophylline was administered there took place a dramatic drop in both PLP due to the inactivation of the kinase, and after approximately 28 days, also of RBC GPT levels as newly formed RBC (produced in the bone marrow under conditions of reduced PLP availability) begin to appear in the circulation.\nAs predicted, the body did indeed try to compensate for this by forming progressively more kinase. […] Thus the increased levels of kinase were unable to reverse the theophylline induced PLP deficiency and the concommittant GPT deficiency."}}, "note": "Where two headings read alike, the source gives them in different places."}
{"smiles": "Cc1ncc(CO)c(C=O)c1O", "note": "[PL, pyridoxal]", "values": [{"measurement": "half-life", "setting": "in vivo", "value": "30 to 40", "unit": "min"}]}
{"smiles": "Cc1ncc(CO)c(CO)c1O", "note": "[PN, pyridoxine]", "values": [{"measurement": "half-life", "setting": "plasma", "value": 12, "unit": "min"}, {"measurement": "extracellular PL and PLP levels", "setting": "[1]", "value": "without affecting extracellular PL and PLP levels materially"}, {"measurement": "influence on B6 dependent intracellular pathways", "setting": "[1]", "value": "profound influence"}]}
{"smiles": "CCCn1c(=O)[nH]c(=O)c2[nH]cnc21", "note": "[enprofylline, 3-propylxanthine]", "values": [{"measurement": "effect on vitamin B6 levels in human plasma and cells", "setting": "[2]", "value": "adverse effect"}]}
{"smiles": "Cn1c(=O)c2[nH]cnc2n(C)c1=O", "note": "[theophylline]", "values": [{"measurement": "type of PL-kinase inhibition", "setting": "PL-kinase", "value": "non-competitive"}, {"measurement": "Urinary serotonin excretion, Basal", "setting": "serotonin; 112 days of theophylline treatment, preceded by 1 week of vitamin B6 supplementation (10 mg/day), mean (SD)", "value": "0.562 (0.127) umol/24 h"}, {"measurement": "Urinary serotonin excretion after tryptophan loading", "setting": "serotonin; human, in vivo", "value": "the observed changes were not statistcially significant"}, {"measurement": "PLP", "setting": "[3]; human, in vivo", "value": "dramatic drop"}, {"measurement": "PLP content and GPT content", "setting": "[3]; human, in vivo", "value": "remained depressed for as long as 100 days"}]}
{"smiles": "Cc1ncc(CO)c(CO)c1O.Cl", "note": "[vitamin B6]", "values": [{"measurement": "urinary serotonin excretion", "setting": "serotonin; one week of B6 supplementation (10 mg per day) during theophylline therapy", "value": "returned urinary serotonin excretion to pre-treatment levels"}, {"measurement": "PLP deficiency induced by the xanthine bronchodilator", "setting": "[3]; low dosage supplementation with Vitamin B6", "value": "almost immediately reversed"}]}
